Entries after “also recorded” stand apart in the source; their conditions may differ. Structures can show the parent of a compound that is named as a salt.
Columns and labels:
[1] = Arterial blood pressure monitored during intracarotid infusion; conditions: higher doses, 100 and 110 μg/kg/min
[2] = cited from earlier work

SMILES | arterial blood pressure [1] | solubility in water [2]
O=c1[nH]c2cc(C(F)(F)F)ccc2n1-c1cc(C(F)(F)F)ccc1O [NS-1619, 1,3-dihydro-1-[2-hydroxy-5-(trifluoromethyl)phenyl]-5-(trifluoromethyl)-2H-benzimidazol-2-one] | significant drop | not easily dissolved in water
Nc1cc(N2CCCCC2)nc(N)[n+]1OS(=O)(=O)[O-] [minoxidil sulfate] |  | not easily dissolved in water
CC(N/C(=N\C#N)Nc1ccncc1)C(C)(C)C (racemic) [pinacidil, (+/−)-N-cyano-N′-4-pyridinyl-N″-(1,2,2-trimethylpropyl)-guanidine] |  | insoluble in water; also recorded: not easily dissolved in water
CC1=NS(=O)(=O)c2cc(Cl)ccc2N1 [diazoxide] |  | not easily dissolved in water

Reference: US7018979B1, “Method for using potassium channel agonists for delivering a medicant to an abnormal brain region and/or a malignant tumor” (Cedars-Sinai Medical Center, priority 2000, dated 2006)
